Source: ChEMBL document CHEMBL1201862, “PubChem BioAssay data set” (2004)
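How tested: cells in 96-well plates exposed to compound for 48 hours at five concentrations. The concentration for 50% growth inhibition is given as GI50.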 Active and inactive are the calls of the source. No stated cut-off is given here; in the data, active = GI50 up to about 1.1 µM and inactive = higher.

Tests used:
Assay in all cases: NCI anticancer screen, dose series, 48 h
NCI-H522 = system: NCI-H522
UACC-257 = system: UACC-257
SW-620 = system: SW-620
UACC-62 = system: UACC-62
CAKI-1 = system: CAKI-1
NCI-H460 = system: NCI-H460
SNB-75 = system: SNB-75
PC-3 = system: PC-3
SF-268 = system: SF-268
KM12 = system: KM12
HCC 2998 = system: HCC 2998
SF-295 = system: SF-295
A549 = system: A549
786-0 = system: 786-0
OVCAR-4 = system: OVCAR-4
COLO 205 = system: COLO 205
HCT-15 = system: HCT-15
SK-MEL-28 = system: SK-MEL-28
MDA-N = system: MDA-N
LOX IMVI = system: LOX IMVI
SN12C = system: SN12C
CCRF-CEM = system: CCRF-CEM
SF-539 = system: SF-539
SK-MEL-2 = system: SK-MEL-2
HL-60 = system: HL-60
MOLT-4 = system: MOLT-4
MDA-MB-231 = system: MDA-MB-231
BT-549 = system: BT-549
RXF 393 = system: RXF 393
ACHN = system: ACHN
HOP-62 = system: HOP-62
OVCAR-5 = system: OVCAR-5
MDA-MB-435 = system: MDA-MB-435
HCT-116 = system: HCT-116
U-251 = system: U-251
TK-10 = system: TK-10
MCF7 = system: MCF7
NCI-H23 = system: NCI-H23
DU-145 = system: DU-145
SNB-19 = system: SNB-19
OVCAR-3 = system: OVCAR-3
EKVX = system: EKVX
OVCAR-8 = system: OVCAR-8
SK-OV-3 = system: SK-OV-3
M14 = system: M14
IGROV-1 = system: IGROV-1
NCI/ADR-RES = system: NCI/ADR-RES
Hs-578T = system: Hs-578T
HOP-92 = system: HOP-92
SK-MEL-5 = system: SK-MEL-5
UO-31 = system: UO-31

Cn1c(S)nc2c(Cl)cc(Cl)cc2c1=O
GI50 (NCI-H522): 44.1 µM (inactive)
GI50 (UACC-257): > 100 µM (inactive)
GI50 (SW-620): > 100 µM (inactive)
GI50 (UACC-62): > 100 µM (inactive)
GI50 (CAKI-1): 67.9 µM (inactive)
GI50 (NCI-H460): > 100 µM (inactive)
GI50 (SNB-75): 55.3 µM (inactive)
GI50 (PC-3): > 100 µM (inactive)
GI50 (SF-268): > 100 µM (inactive)
GI50 (KM12): > 100 µM (inactive)
GI50 (HCC 2998): > 100 µM (inactive)
GI50 (SF-295): > 100 µM (inactive)
GI50 (A549): > 100 µM (inactive)
GI50 (786-0): > 100 µM (inactive)
GI50 (OVCAR-4): > 100 µM (inactive)
GI50 (COLO 205): > 100 µM (inactive)
GI50 (HCT-15): > 100 µM
GI50 (SK-MEL-28): > 100 µM (inactive)
GI50 (MDA-N): > 100 µM (inactive)
GI50 (LOX IMVI): > 100 µM (inactive)
GI50 (SN12C): > 100 µM (inactive)
GI50 (CCRF-CEM): 24.8 µM (inactive)
GI50 (SF-539): 42.8 µM (inactive)
GI50 (SK-MEL-2): > 100 µM (inactive)
GI50 (HL-60): 18.2 µM (inactive)
GI50 (MOLT-4): 18.7 µM (inactive)
GI50 (MDA-MB-231): > 100 µM (inactive)
GI50 (BT-549): > 100 µM (inactive)
GI50 (RXF 393): > 100 µM (inactive)
GI50 (ACHN): > 100 µM (inactive)
GI50 (HOP-62): > 100 µM (inactive)
GI50 (OVCAR-5): > 100 µM (inactive)
GI50 (MDA-MB-435): > 100 µM (inactive)
GI50 (HCT-116): > 100 µM (inactive)
GI50 (U-251): > 100 µM (inactive)
GI50 (TK-10): > 100 µM (inactive)
GI50 (MCF7): 71.4 µM (inactive)
GI50 (NCI-H23): > 100 µM (inactive)
GI50 (DU-145): > 100 µM (inactive)
GI50 (SNB-19): > 100 µM (inactive)
GI50 (OVCAR-3): > 100 µM (inactive)
GI50 (EKVX): > 100 µM (inactive)
GI50 (OVCAR-8): > 100 µM (inactive)
GI50 (SK-OV-3): 74 µM (inactive)
GI50 (M14): > 100 µM (inactive)
GI50 (IGROV-1): 80.5 µM (inactive)
GI50 (NCI/ADR-RES): > 100 µM (inactive)
GI50 (Hs-578T): > 100 µM (inactive)
GI50 (HOP-92): 63.5 µM (inactive)
GI50 (SK-MEL-5): 99.5 µM (inactive)
GI50 (UO-31): 64 µM (inactive)
